Test results as given in PubChem BioAssay AID1259407 (Chemical Carcinogenesis Research Information System (CCRIS), 2018).
Activity calls are given as the source filed them. How the calls were made is not given here.

Tested on: CCRIS mutagenicity, Ames/micronucleus/aberration tests
Assay: CCRIS mutagenicity studies

Measured: mutagenic call

OCC(CO)(CO)CO
inactive: Test System: AMES SALMONELLA TYPHIMURIUM, Strain/Indicator: TA98, Metabolic Activation: NONE, Method: PREINCUBATION inactive; negative | Test System: AMES SALMONELLA TYPHIMURIUM, Strain/Indicator: TA98, Metabolic Activation: RAT, LIVER, S-9, KC 500, Method: PREINCUBATION inactive; negative | Test System: AMES SALMONELLA TYPHIMURIUM, Strain/Indicator: TA98, Metabolic Activation: RAT, LIVER, S-9, SODIUM PHENOBARBITAL AND 5,6-BENZOFLAVONE, Method: PREINCUBATION inactive; negative | Test System: AMES SALMONELLA TYPHIMURIUM, Strain/Indicator: TA100, Metabolic Activation: NONE, Method: PREINCUBATION inactive; negative | Test System: AMES SALMONELLA TYPHIMURIUM, Strain/Indicator: TA100, Metabolic Activation: RAT, LIVER, S-9, KC 500, Method: PREINCUBATION inactive; negative | Test System: AMES SALMONELLA TYPHIMURIUM, Strain/Indicator: TA100, Metabolic Activation: RAT, LIVER, S-9, SODIUM PHENOBARBITAL AND 5,6-BENZOFLAVONE, Method: PREINCUBATION inactive; negative | Test System: AMES SALMONELLA TYPHIMURIUM, Strain/Indicator: TA102, Metabolic Activation: NONE, Method: PREINCUBATION inactive; negative | Test System: AMES SALMONELLA TYPHIMURIUM, Strain/Indicator: TA102, Metabolic Activation: RAT, LIVER, S-9, SODIUM PHENOBARBITAL AND 5,6-BENZOFLAVONE, Method: PREINCUBATION inactive; negative | Test System: AMES SALMONELLA TYPHIMURIUM, Strain/Indicator: TA104, Metabolic Activation: NONE, Method: PREINCUBATION inactive; negative | Test System: AMES SALMONELLA TYPHIMURIUM, Strain/Indicator: TA104, Metabolic Activation: RAT, LIVER, S-9, SODIUM PHENOBARBITAL AND 5,6-BENZOFLAVONE, Method: PREINCUBATION inactive; negative | Test System: AMES SALMONELLA TYPHIMURIUM, Strain/Indicator: TA1535, Metabolic Activation: NONE, Method: PREINCUBATION inactive; negative | Test System: AMES SALMONELLA TYPHIMURIUM, Strain/Indicator: TA1535, Metabolic Activation: RAT, LIVER, S-9, KC 500, Method: PREINCUBATION inactive; negative | Test System: AMES SALMONELLA TYPHIMURIUM, Strain/Indicator: TA1535, Metabolic Activation: RAT, LIVER, S-9, SODIUM PHENOBARBITAL AND 5,6-BENZOFLAVONE, Method: PREINCUBATION inactive; negative | Test System: AMES SALMONELLA TYPHIMURIUM, Strain/Indicator: TA1537, Metabolic Activation: NONE, Method: PREINCUBATION inactive; negative | Test System: AMES SALMONELLA TYPHIMURIUM, Strain/Indicator: TA1537, Metabolic Activation: RAT, LIVER, S-9, KC 500, Method: PREINCUBATION inactive; negative | Test System: AMES SALMONELLA TYPHIMURIUM, Strain/Indicator: TA1537, Metabolic Activation: RAT, LIVER, S-9, SODIUM PHENOBARBITAL AND 5,6-BENZOFLAVONE, Method: PREINCUBATION inactive; negative | Test System: AMES SALMONELLA TYPHIMURIUM, Strain/Indicator: TA1538, Metabolic Activation: NONE, Method: PREINCUBATION inactive; negative | Test System: AMES SALMONELLA TYPHIMURIUM, Strain/Indicator: TA1538, Metabolic Activation: RAT, LIVER, S-9, KC 500, Method: PREINCUBATION inactive; negative | Test System: E. COLI, Strain/Indicator: WP2UVRA/PKM101, Metabolic Activation: NONE, Method: PREINCUBATION inactive; negative | Test System: E. COLI, Strain/Indicator: WP2UVRA/PKM101, Metabolic Activation: RAT, LIVER, S-9, SODIUM PHENOBARBITAL AND 5,6-BENZOFLAVONE, Method: PREINCUBATION inactive; negative | Test System: E. COLI, Strain/Indicator: WP2UVRA, Metabolic Activation: NONE, Method: PREINCUBATION inactive; negative | Test System: E. COLI, Strain/Indicator: WP2 UVRA, Metabolic Activation: RAT, LIVER, S-9, KC 500, Method: PREINCUBATION inactive; negative | Test System: E. COLI, Strain/Indicator: WP2UVRA, Metabolic Activation: RAT, LIVER, S-9, SODIUM PHENOBARBITAL AND 5,6-BENZOFLAVONE, Method: PREINCUBATION inactive; negative

C=C(CC(=O)OCC)C(=O)O
inactive: Test System: Chinese Hamster ovary (CHO) cells, Metabolic Activation: None, Method: HGPRT/6-Thioguanine inactive; negative
